One assay relates to A549. As to the kind of experiment: Cytotoxicity against human A549 cells assessed as cell viability incubated for 48 hrs by MTT assay. Format: functional, cell-based. The conditions noted are these: A549, 48 h.
The test system of a further assay is NCI-H460. Nature of the assay: Cytotoxicity against human NCI-H460 cells assessed as cell viability incubated for 48 hrs by MTT assay. The class given is functional, cell-based. The settings on record: NCI-H460, 48 h. For orientation: Tetrazolium assays rely on reduction of a dye to a coloured formazan, in cell work by metabolically active cells.

Molecules are shown by their SMILES. Some results are limits rather than exact numbers.

Regarding `C/C1=C\[C@@H](OC(=O)C2CC2)[C@H]2[C@H](CC3=C[C@H](C1)OC3=O)OC(=O)[C@@H]2CSc1nc2ccccc2s1`, the figures for the half-inhibitory concentration (IC50) in the assay on A549 and in the assay with NCI-H460 were 17.2 µM and over 25 µM, respectively.

On to `C/C1=C\[C@@H](OC(=O)C2CC2)[C@H]2[C@H](CC3=C[C@H](C1)OC3=O)OC(=O)[C@@H]2CSC(=S)NCc1ccc(F)cc1`, for which the half-maximal inhibitory concentration (IC50) (as a rule, the concentration that gives 50% inhibition) amounted to 1.79 µM in the assay with A549 and 15.2 µM with NCI-H460.

With `C/C1=C\[C@@H](O)[C@H]2[C@H](CC3=C[C@H](C1)OC3=O)OC(=O)[C@@H]2CSCCCCCCCCCCSC[C@H]1C(=O)O[C@H]2CC3=C[C@H](C/C(C)=C/[C@@H](O)[C@@H]21)OC3=O`, the IC50 in the assay with A549 and with NCI-H460 was over 25 µM throughout.

As to `C/C1=C\[C@@H](OC(=O)C2CC2)[C@H]2[C@H](CC3=C[C@H](C1)OC3=O)OC(=O)[C@@H]2CSC(=S)NC1CCCC1`, the concentration for half-maximal inhibition (IC50) with A549 was 2.63 µM; in the assay on NCI-H460, over 25 µM.

For `C/C1=C\[C@@H](OC(=O)/C=C/c2ccccc2)[C@H]2[C@H](CC3=C[C@H](C1)OC3=O)OC(=O)[C@@H]2CSCCCCCSC[C@H]1C(=O)O[C@H]2CC3=C[C@H](C/C(C)=C/[C@@H](OC(=O)/C=C/c4ccccc4)[C@@H]21)OC3=O`, the half-inhibitory concentration (IC50) in the assay on A549 and with NCI-H460 was over 25 µM each time.

With `C/C1=C\[C@@H](OC(=O)c2ccccc2)[C@H]2[C@H](CC3=C[C@H](C1)OC3=O)OC(=O)[C@@H]2CSC1CCCCC1`, the IC50 with A549 and in the assay on NCI-H460 was over 25 µM in each case.

As to `C/C1=C\[C@@H](O)[C@H]2[C@H](CC3=C[C@H](C1)OC3=O)OC(=O)[C@@H]2CSCc1ccc(Cl)cc1`, the 50% inhibitory concentration (IC50) with A549 and in the assay on NCI-H460 was over 25 µM each time.

As for `C/C1=C\[C@@H](OC(=O)C2CC2)[C@H]2[C@H](CC3=C[C@H](C1)OC3=O)OC(=O)[C@@H]2CSc1ccc([N+](=O)[O-])cc1`, the half-maximal inhibitory concentration (IC50) in the assay on A549 was 5.12 µM; in the assay with NCI-H460 it was over 25 µM.

On to `C/C1=C\[C@@H](O)[C@H]2[C@H](CC3=C[C@H](C1)OC3=O)OC(=O)[C@@H]2CSC1CCCCC1`, for which the IC50 in the assay on A549 and in the assay on NCI-H460 was over 25 µM throughout.

`C/C1=C\[C@@H](OC(=O)c2ccccc2)[C@H]2[C@H](CC3=C[C@H](C1)OC3=O)OC(=O)[C@@H]2CSCCCCCCSC[C@H]1C(=O)O[C@H]2CC3=C[C@H](C/C(C)=C/[C@@H](OC(=O)c4ccccc4)[C@@H]21)OC3=O`: the IC50 with A549 and with NCI-H460 was over 25 µM throughout.

As to `CCCCCSC[C@H]1C(=O)O[C@H]2CC3=C[C@H](C/C(C)=C/[C@@H](O)[C@@H]21)OC3=O`, the half-maximal inhibitory concentration (IC50) with A549 and in the assay on NCI-H460 was over 25 µM in each case.

Regarding `C/C1=C\[C@@H](OC(=O)C2CC2)[C@H]2[C@H](CC3=C[C@H](C1)OC3=O)OC(=O)[C@@H]2CSC(=S)NC(C)C`, the concentration for half-maximal inhibition (IC50) with A549 was 1.94 µM; in the assay on NCI-H460, over 25 µM.

As to `C/C1=C\[C@@H](OC(=O)/C=C/c2ccccc2)[C@H]2[C@H](CC3=C[C@H](C1)OC3=O)OC(=O)[C@@H]2CSc1ccc(Cl)cc1`, the results for the IC50 with A549 and in the assay on NCI-H460 were 7.5 µM and over 25 µM, respectively.

`C/C1=C\[C@@H](OC(=O)C2CC2)[C@H]2[C@H](CC3=C[C@H](C1)OC3=O)OC(=O)[C@@H]2CSc1ccc(Cl)cc1`: the values for the IC50 with A549 and in the assay with NCI-H460 were 6.03 µM and over 25 µM, respectively.

As for `C/C1=C\[C@@H](OC(=O)C2CC2)[C@H]2[C@H](CC3=C[C@H](C1)OC3=O)OC(=O)[C@@H]2CSc1cccc(Br)c1`, the IC50 in the assay with A549 was 5.77 µM; in the assay with NCI-H460, over 25 µM.

In the case of `C/C1=C\[C@@H](OC(=O)/C=C/c2ccccc2)[C@H]2[C@H](CC3=C[C@H](C1)OC3=O)OC(=O)[C@@H]2CSc1cccc(F)c1`, the IC50 in the assay with A549 was 15.6 µM; in the assay on NCI-H460, over 25 µM.

On to `C/C1=C\[C@@H](O)[C@H]2[C@H](CC3=C[C@H](C1)OC3=O)OC(=O)[C@@H]2CSc1ccc(F)cc1`, for which the IC50 in the assay with A549 and in the assay with NCI-H460 was over 25 µM throughout.

As to `C/C1=C\[C@@H](O)[C@H]2[C@H](CC3=C[C@H](C1)OC3=O)OC(=O)[C@@H]2CSc1cccc(Br)c1`, the IC50 in the assay on A549 and in the assay with NCI-H460 was over 25 µM in each case.

As for `C/C1=C\[C@@H](OC(=O)c2ccccc2)[C@H]2[C@H](CC3=C[C@H](C1)OC3=O)OC(=O)[C@@H]2CSc1ccc(Cl)cc1`, the values for the IC50 in the assay with A549 and in the assay on NCI-H460 were 4.14 µM and 20.6 µM, respectively.

`CCCCCSC[C@H]1C(=O)O[C@H]2CC3=C[C@H](C/C(C)=C/[C@@H](OC(=O)c4ccccc4)[C@@H]21)OC3=O`: the IC50 with A549 and in the assay with NCI-H460 was over 25 µM each time.

As for `C/C1=C\[C@@H](O)[C@H]2[C@H](CC3=C[C@H](C1)OC3=O)OC(=O)[C@@H]2CSc1ccc(Cl)cc1`, the IC50 in the assay with A549 and in the assay on NCI-H460 was over 25 µM throughout.

`C/C1=C\[C@@H](OC(=O)c2ccccc2)[C@H]2[C@H](CC3=C[C@H](C1)OC3=O)OC(=O)[C@@H]2CSc1ccc(Br)cc1`: the IC50 is 8.85 µM in the assay with A549 and over 25 µM in the assay on NCI-H460.

Consider `C/C1=C\[C@@H](OC(=O)C2CC2)[C@H]2[C@H](CC3=C[C@H](C1)OC3=O)OC(=O)[C@@H]2CSCCCCCSC[C@H]1C(=O)O[C@H]2CC3=C[C@H](C/C(C)=C/[C@@H](OC(=O)C4CC4)[C@@H]21)OC3=O`, for which the half-maximal inhibitory concentration (IC50) in the assay on A549 and in the assay with NCI-H460 was over 25 µM throughout.

In the case of `C/C1=C\[C@@H](OC(=O)c2ccccc2)[C@H]2[C@H](CC3=C[C@H](C1)OC3=O)OC(=O)[C@@H]2CSCC(C)C`, the half-maximal inhibitory concentration (IC50) with A549 and with NCI-H460 was over 25 µM throughout.

As to `C/C1=C\[C@@H](O)[C@H]2[C@H](CC3=C[C@H](C1)OC3=O)OC(=O)[C@@H]2CSCC(C)C`, the IC50 in the assay with A549 and in the assay on NCI-H460 was over 25 µM throughout.

As to `C/C1=C\[C@@H](OC(=O)/C=C/c2ccccc2)[C@H]2[C@H](CC3=C[C@H](C1)OC3=O)OC(=O)[C@@H]2CSCC(C)C`, the IC50 in the assay on A549 and in the assay with NCI-H460 was over 25 µM each time.

As for `C/C1=C\[C@@H](OC(=O)c2ccccc2)[C@H]2[C@H](CC3=C[C@H](C1)OC3=O)OC(=O)[C@@H]2CSCCCCCCCCSC[C@H]1C(=O)O[C@H]2CC3=C[C@H](C/C(C)=C/[C@@H](OC(=O)c4ccccc4)[C@@H]21)OC3=O`, the IC50 in the assay on A549 and with NCI-H460 was over 25 µM each time.

Turning to `COc1ccc(SC[C@H]2C(=O)O[C@H]3CC4=C[C@H](C/C(C)=C/[C@@H](OC(=O)C5CC5)[C@@H]32)OC4=O)cc1`, the results for the IC50 in the assay on A549 and in the assay with NCI-H460 were 6.81 µM and over 25 µM, respectively.

As to `C/C1=C\[C@@H](OC(=O)C2CC2)[C@H]2[C@H](CC3=C[C@H](C1)OC3=O)OC(=O)[C@@H]2CSCCOCCOCCSC[C@H]1C(=O)O[C@H]2CC3=C[C@H](C/C(C)=C/[C@@H](OC(=O)C4CC4)[C@@H]21)OC3=O`, the half-inhibitory concentration (IC50) in the assay with A549 was 13.2 µM; with NCI-H460, over 25 µM.

For `COc1ccc(SC[C@H]2C(=O)O[C@H]3CC4=C[C@H](C/C(C)=C/[C@@H](OC(=O)c5ccccc5)[C@@H]32)OC4=O)cc1`, the figures for the concentration for half-maximal inhibition (IC50) in the assay with A549 and with NCI-H460 were 9.67 µM and over 25 µM, respectively.

On to `C/C1=C\[C@@H](OC(=O)/C=C/c2ccccc2)[C@H]2[C@H](CC3=C[C@H](C1)OC3=O)OC(=O)[C@@H]2CSCc1ccc(Cl)cc1`, for which the half-maximal inhibitory concentration (IC50) in the assay on A549 and with NCI-H460 was over 25 µM each time.

As to `C/C1=C\[C@@H](OC(=O)c2ccccc2)[C@H]2[C@H](CC3=C[C@H](C1)OC3=O)OC(=O)[C@@H]2CSc1cccc(Br)c1`, the IC50 is 3.66 µM in the assay on A549 and over 25 µM with NCI-H460.

As for `C/C1=C\[C@@H](OC(=O)/C=C/c2ccccc2)[C@H]2[C@H](CC3=C[C@H](C1)OC3=O)OC(=O)[C@@H]2CSCCCCCCCCCCSC[C@H]1C(=O)O[C@H]2CC3=C[C@H](C/C(C)=C/[C@@H](OC(=O)/C=C/c4ccccc4)[C@@H]21)OC3=O`, the half-maximal inhibitory concentration (IC50) with A549 and with NCI-H460 was over 25 µM throughout.

Consider `C/C1=C\[C@@H](OC(=O)C2CC2)[C@H]2[C@H](CC3=C[C@H](C1)OC3=O)OC(=O)[C@@H]2CSCCCCCCSC[C@H]1C(=O)O[C@H]2CC3=C[C@H](C/C(C)=C/[C@@H](OC(=O)C4CC4)[C@@H]21)OC3=O`, for which the half-inhibitory concentration (IC50) with A549 and in the assay on NCI-H460 was over 25 µM each time.

For the compound `C/C1=C\[C@@H](OC(=O)C2CC2)[C@H]2[C@H](CC3=C[C@H](C1)OC3=O)OC(=O)[C@@H]2CSCCCCCCCCCCSC[C@H]1C(=O)O[C@H]2CC3=C[C@H](C/C(C)=C/[C@@H](OC(=O)C4CC4)[C@@H]21)OC3=O`, the IC50 in the assay on A549 and in the assay on NCI-H460 was over 25 µM each time.

In the case of `CCCCCSC[C@H]1C(=O)O[C@H]2CC3=C[C@H](C/C(C)=C/[C@@H](OC(=O)/C=C/c4ccccc4)[C@@H]21)OC3=O`, the half-maximal inhibitory concentration (IC50) with A549 and with NCI-H460 was over 25 µM each time.

Turning to `COc1ccc(SC[C@H]2C(=O)O[C@H]3CC4=C[C@H](C/C(C)=C/[C@@H](OC(=O)/C=C/c5ccccc5)[C@@H]32)OC4=O)cc1`, the concentration for half-maximal inhibition (IC50) in the assay on A549 was 14 µM; with NCI-H460, over 25 µM.

`C/C1=C\[C@@H](O)[C@H]2[C@H](CC3=C[C@H](C1)OC3=O)OC(=O)[C@@H]2CSc1cccc(F)c1`: the IC50 in the assay on A549 and in the assay with NCI-H460 was over 25 µM throughout.

For `C/C1=C\[C@@H](OC(=O)C2CC2)[C@H]2[C@H](CC3=C[C@H](C1)OC3=O)OC(=O)[C@@H]2CSC(=S)N1CCOCC1`, the IC50 with A549 is 0.83 µM; in the assay with NCI-H460, over 25 µM.

On to `C/C1=C\[C@@H](OC(=O)C2CC2)[C@H]2[C@H](CC3=C[C@H](C1)OC3=O)OC(=O)[C@@H]2CSCCCCCCCCSC[C@H]1C(=O)O[C@H]2CC3=C[C@H](C/C(C)=C/[C@@H](OC(=O)C4CC4)[C@@H]21)OC3=O`, for which the IC50 in the assay with A549 and with NCI-H460 was over 25 µM in each case.

The values are drawn from ChEMBL document CHEMBL6121052, “Design of ROS-Triggered Sesquiterpene Lactone SC Prodrugs as TrxR1 Covalent Inhibitors for the Treatment of Non-Small Cell Lung Cancer” (J Med Chem, 2025).
